According to PubChem BioAssay (NCI):
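A five-concentration, 48-hour dose response in 96-well plates underlies each endpoint, interpolated linearly between surrounding concentrations. At the TGI there is no net growth.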

What was measured:
Assay in all cases: DTP human tumour cell line panel, 48 h
786-0 renal = test system: 786-0 renal
A498 renal = test system: A498 renal
A549 NSCLC = test system: A549 NSCLC
ACHN renal = test system: ACHN renal
BT-549 breast = test system: BT-549 breast
CAKI-1 renal = test system: CAKI-1 renal
CCRF-CEM leukemia = test system: CCRF-CEM leukemia
COLO 205 colon = test system: COLO 205 colon
DU-145 prostate = test system: DU-145 prostate
EKVX NSCLC = test system: EKVX NSCLC
HCC-2998 colon = test system: HCC-2998 colon
HCT-116 colon = test system: HCT-116 colon
HCT-15 colon = test system: HCT-15 colon
HL-60(TB) leukemia = test system: HL-60(TB) leukemia
HOP-62 NSCLC = test system: HOP-62 NSCLC
HOP-92 NSCLC = test system: HOP-92 NSCLC
HS 578T breast = test system: HS 578T breast
HT29 colon = test system: HT29 colon
IGROV1 ovarian = test system: IGROV1 ovarian
K-562 leukemia = test system: K-562 leukemia
KM12 colon = test system: KM12 colon
LOX IMVI melanoma = test system: LOX IMVI melanoma
M14 melanoma = test system: M14 melanoma
MALME-3M melanoma = test system: MALME-3M melanoma
MCF7 breast = test system: MCF7 breast
MDA-MB-231 breast = test system: MDA-MB-231 breast
MDA-MB-435 = test system: MDA-MB-435
MDA-N = test system: MDA-N
MOLT-4 leukemia = test system: MOLT-4 leukemia
NCI-H23 lung = test system: NCI-H23 lung
NCI-H460 lung = test system: NCI-H460 lung
NCI-H522 lung = test system: NCI-H522 lung
NCI/ADR-RES ovarian = test system: NCI/ADR-RES ovarian
OVCAR-3 ovarian = test system: OVCAR-3 ovarian
OVCAR-4 ovarian = test system: OVCAR-4 ovarian
OVCAR-5 ovarian = test system: OVCAR-5 ovarian
OVCAR-8 ovarian = test system: OVCAR-8 ovarian
PC-3 prostate = test system: PC-3 prostate
RPMI-8226 leukemia = test system: RPMI-8226 leukemia
RXF 393 renal = test system: RXF 393 renal
SF-268 CNS = test system: SF-268 CNS
SF-295 CNS = test system: SF-295 CNS
SF-539 CNS = test system: SF-539 CNS
SK-MEL-2 melanoma = test system: SK-MEL-2 melanoma
SK-MEL-28 melanoma = test system: SK-MEL-28 melanoma
SK-MEL-5 melanoma = test system: SK-MEL-5 melanoma
SK-OV-3 ovarian = test system: SK-OV-3 ovarian
SN12C renal = test system: SN12C renal
SNB-19 CNS = test system: SNB-19 CNS
SNB-75 CNS = test system: SNB-75 CNS
SW-620 colon = test system: SW-620 colon
T-47D breast = test system: T-47D breast
TK-10 renal = test system: TK-10 renal
U251 CNS = test system: U251 CNS
UACC-257 melanoma = test system: UACC-257 melanoma
UACC-62 melanoma = test system: UACC-62 melanoma
UO-31 renal = test system: UO-31 renal

O=C1Nc2ccccc2/C1=C\c1c(-c2ccccc2)nc2n1CCS2
TGI (786-0 renal): 45.5 µM | TGI (A498 renal): 68.8 µM | TGI (A549 NSCLC): > 100 µM | TGI (ACHN renal): > 100 µM | TGI (BT-549 breast): 43.7 µM | TGI (CAKI-1 renal): > 100 µM | TGI (CCRF-CEM leukemia): > 100 µM | TGI (COLO 205 colon): 81.3 µM | TGI (DU-145 prostate): 40.7 µM | TGI (EKVX NSCLC): 52 µM | TGI (HCC-2998 colon): 34.8 µM | TGI (HCT-116 colon): 49.2 µM | TGI (HCT-15 colon): 52.3 µM | TGI (HL-60(TB) leukemia): 42.3 µM | TGI (HOP-62 NSCLC): > 100 µM | TGI (HOP-92 NSCLC): > 100 µM | TGI (HS 578T breast): 75.2 µM | TGI (HT29 colon): 39.9 µM | TGI (IGROV1 ovarian): > 100 µM | TGI (K-562 leukemia): > 100 µM | TGI (KM12 colon): 37.5 µM | TGI (LOX IMVI melanoma): 38.6 µM | TGI (M14 melanoma): 87.9 µM | TGI (MALME-3M melanoma): 74.1 µM | TGI (MCF7 breast): 39.3 µM | TGI (MDA-MB-231 breast): 47 µM | TGI (MDA-MB-435): 39.8 µM | TGI (MDA-N): 65 µM | TGI (MOLT-4 leukemia): 81 µM | TGI (NCI-H23 lung): 66.3 µM | TGI (NCI-H460 lung): 41.9 µM | TGI (NCI-H522 lung): 51.7 µM | TGI (NCI/ADR-RES ovarian): 68.1 µM | TGI (OVCAR-3 ovarian): 41.8 µM | TGI (OVCAR-4 ovarian): > 100 µM | TGI (OVCAR-5 ovarian): 58.5 µM | TGI (OVCAR-8 ovarian): > 100 µM | TGI (PC-3 prostate): 48.3 µM | TGI (RPMI-8226 leukemia): 65.8 µM | TGI (RXF 393 renal): 47.2 µM | TGI (SF-268 CNS): 86.9 µM | TGI (SF-295 CNS): 48.6 µM | TGI (SF-539 CNS): 39.1 µM | TGI (SK-MEL-2 melanoma): 28.5 µM | TGI (SK-MEL-28 melanoma): > 100 µM | TGI (SK-MEL-5 melanoma): 30.2 µM | TGI (SK-OV-3 ovarian): 67.1 µM | TGI (SN12C renal): 58.5 µM | TGI (SNB-19 CNS): 91 µM | TGI (SNB-75 CNS): 42.8 µM | TGI (SW-620 colon): > 100 µM | TGI (T-47D breast): 76.8 µM | TGI (TK-10 renal): 34.3 µM | TGI (U251 CNS): 45.3 µM | TGI (UACC-257 melanoma): 45.9 µM | TGI (UACC-62 melanoma): 27.4 µM | TGI (UO-31 renal): 80.6 µM

Cc1[nH]c2nc3c(ncn3COCCO)c(=O)n2c1C(c1ccccc1)(c1ccccc1)c1ccccc1
TGI (786-0 renal): 32.2 µM | TGI (A498 renal): 33.3 µM | TGI (A549 NSCLC): 40.5 µM | TGI (ACHN renal): 35.5 µM | TGI (BT-549 breast): 2.22 µM | TGI (CAKI-1 renal): > 100 µM | TGI (CCRF-CEM leukemia): > 52.9 µM | TGI (COLO 205 colon): 31 µM | TGI (DU-145 prostate): 26.2 µM | TGI (EKVX NSCLC): 41.8 µM | TGI (HCC-2998 colon): 26.4 µM | TGI (HCT-116 colon): 29.3 µM | TGI (HCT-15 colon): > 100 µM | TGI (HL-60(TB) leukemia): 44.4 µM | TGI (HOP-62 NSCLC): 44.3 µM | TGI (HOP-92 NSCLC): 31.8 µM | TGI (HS 578T breast): > 91.2 µM | TGI (HT29 colon): 24.2 µM | TGI (IGROV1 ovarian): 28.4 µM | TGI (K-562 leukemia): 27.3 µM | TGI (KM12 colon): 28.5 µM | TGI (LOX IMVI melanoma): 27.8 µM | TGI (M14 melanoma): 33.3 µM | TGI (MALME-3M melanoma): 33.6 µM | TGI (MCF7 breast): 23.1 µM | TGI (MDA-MB-231 breast): 28.3 µM | TGI (MDA-MB-435): 24.3 µM | TGI (MDA-N): 29.2 µM | TGI (MOLT-4 leukemia): 24.3 µM | TGI (NCI-H23 lung): 23.1 µM | TGI (NCI-H460 lung): 30.9 µM | TGI (NCI-H522 lung): 28.2 µM | TGI (NCI/ADR-RES ovarian): > 100 µM | TGI (OVCAR-3 ovarian): 15.4 µM | TGI (OVCAR-4 ovarian): 30.4 µM | TGI (OVCAR-5 ovarian): 32.7 µM | TGI (OVCAR-8 ovarian): 32.4 µM | TGI (PC-3 prostate): 26 µM | TGI (RPMI-8226 leukemia): 45.5 µM | TGI (RXF 393 renal): 26.2 µM | TGI (SF-268 CNS): 33.1 µM | TGI (SF-295 CNS): 34.2 µM | TGI (SF-539 CNS): 19.2 µM | TGI (SK-MEL-2 melanoma): 29.8 µM | TGI (SK-MEL-28 melanoma): 43.5 µM | TGI (SK-MEL-5 melanoma): 29.4 µM | TGI (SK-OV-3 ovarian): 32.8 µM | TGI (SN12C renal): 33 µM | TGI (SNB-19 CNS): 28.6 µM | TGI (SNB-75 CNS): 26.7 µM | TGI (SW-620 colon): > 56.4 µM | TGI (T-47D breast): 29.7 µM | TGI (TK-10 renal): 30.8 µM | TGI (U251 CNS): 28 µM | TGI (UACC-257 melanoma): 27.4 µM | TGI (UACC-62 melanoma): 24 µM | TGI (UO-31 renal): > 76.1 µM
